Experimental data reported in patent publication US6680199B1, “In vitro activation of mammalian oocytes” (Infigen, Inc., priority 1993, dated 2004).
Marks after values point to notes of the source that are not given here.

Columns and labels:
[1] = test system: bovine oocytes matured for 24 hours; experiment: Parthenogenic activation of in vitro matured bovine oocytes (activation, pronuclear formation); assay type: cell-based; conditions: for Activation of oocytes, result in words / Chromosome / pronuclear outcome, result in words: Experiment 1, 5 hours of culture, FIG. 1b-1d; for % Activation / % Pronuclear formation: oocytes matured 24 h, ionomycin 5 μM 4 min and/or DMAP for 5 hours, determined after 5 hours of culture
Protocol: Bovine oocytes were obtained at an abattoir and transported to the laboratory in saline (30-34° C., transport time 2-6 hr). Oocytes from small follicles (1-6 mm) were aspirated and matured according to the methods described in Sirard et al., 1988. Briefly, oocytes were diluted out of the follicular fluid with 3 dilutions of TL HEPES modified by removing glucose, adding 0.22 mM pyruvate and 1 mg/ml of BSA (Fraction V, Sigma Chemical CO, St. Louis, Mo.).
The oocytes were placed in 50 μl drops of TCM-199 (Earle's Salts; Gibco, Grand Island, N.Y.) supplemented with 10% heat treated fetal calf serum, 0.22 mM pyruvate, 5 μg/ml FSH-P (Scherring-Plough Animal Health Corp., Kenilworth, N.J.) and 1 μ/ml estradiol. Ten oocytes were incubated in a 50 μl drop under paraffin oil for 24 hours at 39° C. in 5% CO2 in air humidified atmosphere.
(§1) The cumulus was removed from matured oocytes by vortexing vigorously in 200 μl or TL-HEPES for 3 min. The denuded oocytes were diluted in 3 changes of TL-HEPES to separate the oocytes from the cumulus cells. Where indicated, the oocytes were exposed to 5 μM ionomycin (5 mM stock in DMSO; Calbiochem, La Jolla, Calif.) in TL-HEPES (1 mg/ml fatty acid free BSA) for 4 min. The oocytes were then diluted into TL-HEPES (30 mg/ml fatty acid BSA) for 5 min followed by dilution into TL-HEPES (1 mg/ml Fraction V BSA). The oocytes were then moved to 50 μl drops of embryonic cell development media (U.S. Pat. No. 5,096,822 to Rosenkrans et al., with or without DMAP (1.9 mM) for the indicated times (39° C., 5% CO2 in air). Embryonic cell development media contained 114.6 mM NaCl, 3.1 mM KCl, 5 mM hemi-calcium lactate, 0.4 mM Na pyruvate, 1 mM glutamine, 3 mg/ml fatty acid free BSA, MEM nonessential amino acids and BME amino acids.
Activation was evaluated at times indicated in each experiment. The oocytes were mounted on slides, fixed with acetic acid:alcohol (1:3) and observed with Nomarski optics. Special care was taken in determining if metaphase plates were metaphase II or aberrant metaphase III (Kubiak, 1989). Oocytes that contained a metaphase I or II plate were considered not activated. Oocytes that contained anaphase, telophase or metaphase […] plates or pronuclei were considered to be activated.
Experiment 1 determined the effect of sequential exposure of oocytes to ionomycin and DMAP. One level of ionomycin (5 μM) and DMAP (1.9 mM) was used throughout all studies. The oocytes were cultured for 5 hours after ionomycin incubation with or without DMAP. Control oocytes were cultured in embryonic cell development medium alone. Activation was determined after 5 hours of culture. […]
Experiment 3 was designed to determine the kinetics of activation when oocytes were exposed to ionomycin alone or to ionomycin followed by a 3 hour incubation in DMAP. At the end of the 3 hour incubation, oocytes in DMAP were diluted in TL-HEPES (1 mg/ml Fraction V BSA) and moved to embryonic cell development medium until mounting. A sample of oocytes from both treatments were mounted at 1, 2, 3, 4 and 5 hours after exposure to ionomycin to determine the activation state.
Experiment 4 was designed to determine the time at which DMAP is necessary for parthenogenic activation relative to the exposure to ionomycin. The oocytes were exposed to ionomycin and placed in embryonic cell development medium. At 0, 1, 2, 2.5, 3 and 4 hours after ionomycin exposure, oocytes were placed in embryonic cell development medium+DMAP. At 5 hours post ionomycin exposure, the oocytes were mounted to determine their activation state.

[2] = test system: bovine oocytes matured for 24 hours; experiment: Parthenogenic development of activated oocytes (initial cleavage, blastocyst, blastocyst cell number); assay type: cell-based; conditions: for Development to Blastocyst (± se): after ionomycin 5 μM, day 7-8 of culture; for cell number in resulting parthenote blastocysts, Good / cell number in resulting parthenote blastocysts, Poor: after ionomycin
Protocol: as §1
In experiments that determined development potential of the parthenotes, activated oocytes were cultured for 7-8 days in embryonic cell development media. On the date after activation, initial cleavage was determined by visual observation. On day 4 of incubation 5% heat treated fetal calf serum was added to each drop. For some experiments, blastocysts were mounted and fixed in acetic acid:alcohol (1:3) and stained with 1% orcein dissolved in 40% acetic acid to determine cell numbers.
Experiments 2a and 2b determined the effect of time of incubation in DMAP on activation and development. In Experiment 2a, oocytes were incubated in DMAP for 15, 30, 60, 150 and 300 minutes. At the end of the incubation time indicated, oocytes were rinsed in TL-HEPES (1 mg/ml Fraction V BSA) and placed into embryonic cell development medium until 5 hours had elapsed. At 5 hours, a subsample of oocytes was removed and mounted to determine activation. The remaining oocytes were returned to the incubator for 7-8 days. Blastocytes on day 7-8 were rated as good or poor and cell number was determined.
Experiment 2b was similar in design except that oocytes were incubated for 2 hours, 3 hours, 4 hours, or 5 hours in DMAP.

[3] = test system: 42-hour oocyte derived nuclear transfer (NT) embryos; experiment: Development of 42-hour oocyte derived nuclear transfer embryos; assay type: cell-based, bovine; conditions: 1.9 mM DMAP with room temperature activation (RTC) 2 hours; 140 NTs to culture; 6 to 7 days
Protocol: Bovine oocytes were obtained and placed in maturation media for approximately 20 hours. The cumulus cells were then stripped off the oocytes according to the previously described procedures.
The oocytes were then enucleated according to Prather et al. and placed in CR1aa maturation medium until 40 hours had elapsed. The oocyte were then placed in CR1aa maturation medium with 1.9 mM DMAP for 2 hours and incubated at room temperature activation (RTC) conditions (about 25° C.).
Following incubation, embryonic cells were transferred into the oocytes and the 2 cells were electrically fused together according to the procedures described in Prather et al., with the exception of the step of waiting until 42 hours to activate via RTC (25° C.) and adding DMAP prior to the time of electrofusion. The fused nuclear transfer embryos were then cultured in maturation medium CR1aa for 6 to 7 days to determine developmental rates to the blastocyst stage.

[4] = test system: 20-hours oocytes derived nuclear transfers; experiment: Development of 20-hour oocyte derived nuclear transfers (fused after activation); assay type: cell-based, bovine; conditions: treatment at 20 hours maturation after enucleation, 4 hours DMAP with or without ionomycin 5 μM 4 min
Protocol: This experiment was conducted under similar conditions as Experiment 6 with the exception that the oocytes were either placed directly in DMAP (young oocytes) or given in ionomycin (5 μM) treatment for 4 minutes plus DMAP treatment immediately after enucleation, i.e., at 20 hours maturation. At the end of the DMAP treatment, approximately 24 hours, embryonic cells were transferred into the oocytes and electrofusion was induced. The concentration of activating chemicals used were the same as those described in Experiment 6. The embryos were placed in maturation medium CR1aa for 6 to 7 days to determine developmental rates to blastocyst stage.

[5] = Experiment 3, FIG. 2, time after exposure to ionomycin

Structure (SMILES): CN(C)c1ncnc2nc[nH]c12 [DMAP, 6-dimethylaminopurine]
- Activation of oocytes, result in words [1]: did not activate the oocytes
- Chromosome / pronuclear outcome, result in words [1]: caused the chromosomes to form a tight clump in the cytoplasm
- Effect of interval from ionomycin treatment to exposure to DMAP, result in words ([1]; Experiment 4, FIG. 3, interval more than 1 hour, mounted 5 hours post ionomycin): increase in ability to resume meiosis
- % Activation [1]: 7.8 ± 5.5^a %
- % Pronuclear formation [1]: 7.8 ± 5.5^a %
- Development to Blastocyst (± se) ([2]; Experiment 2b, DMAP incubation 0 h (ionomycin alone)): 0^a %
- Development to Blastocyst (± se) ([2]; 6-DMAP 1.9 mM incubation 15 min): 0^a %
- Development to Blastocyst (± se) ([2]; 6-DMAP 1.9 mM incubation 30 min): 0^a %
- Development to Blastocyst (± se) ([2]; 6-DMAP incubation 0 min (ionomycin alone)): 0^a %
- cell number in resulting parthenote blastocysts, Good ([2]; DMAP incubation 2 h): 88.7
- cell number in resulting parthenote blastocysts, Good ([2]; DMAP incubation 3 h): 70.1
- cell number in resulting parthenote blastocysts, Poor ([2]; DMAP incubation 3 h): 33.1
- cell number in resulting parthenote blastocysts, Good ([2]; DMAP incubation 4 h): 73.6
- cell number in resulting parthenote blastocysts, Poor ([2]; DMAP incubation 4 h): 40.1
- cell number in resulting parthenote blastocysts, Good ([2]; DMAP incubation 5 h): 83.7
- cell number in resulting parthenote blastocysts, Poor ([2]; DMAP incubation 5 h): 44
- Number Blastocyst [3]: 40
- Number Blastocyst, percent [3]: 29%
- Number Usable Blastocyst [3]: 18
- Number Usable Blastocyst, percent [3]: 13%
- % Usable ([4]; cultured 6 to 7 days): 0%
- Development Rate to Blastocyst ([4]; cultured 6 to 7 days): 0%
- Cleavage Rate ([4]; fused after activation): 4%

Structure (SMILES): C[C@H](CCC(=O)O)C[C@H](C)C[C@H](C)C(=O)/C=C(\O)[C@H](C)C[C@H](C)C/C=C/[C@@H](C)[C@@H](O)[C@@H](C)[C@@H](O)C[C@@H]1CC[C@@](C)([C@H]2CC[C@@](C)([C@@H](C)O)O2)O1 [Ionomycin, ionomycin]
- Activation of oocytes, result in words [1]: activated the oocytes to a high level
- Chromosome / pronuclear outcome, result in words [1]: instead of forming pronuclei the chromosomes reassembled into a metaphase plate
- Time by which oocytes had resumed meiosis [1, 5]: ≤ 1 h
- Time by which oocytes were arrested in metaphase III [1, 5]: 4 to 5 h
- % Activation [1]: 57.8 ± 7.8^b %
- % Pronuclear formation [1]: 8.9 ± 7.3^a %
